Here are results for 6 molecules from article PMC6720848, “Synthesis of New Quinoline-Piperonal Hybrids as Potential Drugs against Alzheimer’s Disease” (International Journal of Molecular Sciences, 2019).

Experiment in all cases: biochemical
In experiment [1] the target is T1, EeAChE (AChE from Electrophorus electricus) (Electrophorus electricus, UniProt O42275).
T1 construct: purchased Sigma-Aldrich (São Paulo, Brazil)
In kind it is biochemical. To be noted: modified Ellman's method, 37 °C, samples 1 to 100 µM, average ± standard deviation of three experiments. On the procedure: (§1) In order to determine the anticholinesterase activity, we used Ellman’s method modified for a 96-wells plate. The velocities of substrate hydrolysis by AChE and BChE as function of sample concentration were evaluated for EeAChE and EqBChE. AChE, BChE and Ellman’s reagent (DTNB) were prepared in phosphate buffer (100 mM, pH 7.4). Acetylthiocholine iodide (ATCI), and butyrylthiocholine iodide (BTCI) were prepared in distilled water. Stock samples (100 mM) were prepared in dimethyl sulphoxide (DMSO) and appropriately diluted in distilled water to the desired concentrations immediately before use. All solutions were kept on ice during the experiment. All experiments were performed at 37 ± 1 °C.
(§2) The mixture was incubated for 10 min. Then, ATCI (0.5 mM) or BTCI (1.0 mM) was added to all wells and the plate was read immediately for 5 min in a spectrophotometer (Spectramax 340PC, Molecular Device®). The spontaneous and sample (100 µM) induced hydrolysis of the substrate were evaluated by replacing enzyme for buffer. […] The solvent (DMSO) was evaluated at the highest concentration (0.2%) used in the experiment. All concentrations refer to final concentrations. The samples were tested in at least 5 concentrations. […] The values of absorbance/min were calculated by the software Softmax Pro 6.4®. Inhibition values were calculated through non-linear regression with the software GraphPadPrism 5 (GraphPad software®, San Diego, CA, USA). […] EeAChE (EC.3.1.1.7), EqBChE (EC3.1.1.8), ATCI, BTCI and DTNB were purchased from Sigma-Aldrich (São Paulo, Brazil).

Experiment [2] concerns the target T2, EqBChE (butyrylcholinesterase from equine serum) (Equus caballus, UniProt P81908).
T2 construct: butyrylcholinesterase from equine serum (EqBChE); purchased Sigma-Aldrich (São Paulo, Brazil); host or cells: equine serum
The class given is biochemical. To be noted: modified Ellman's method, 37 °C, samples 1 to 100 µM, average ± standard deviation of three experiments. The protocol:
as §1, §2

The target in the next experiment is T3, EeAChE (Electrophorus electricus, UniProt O42275).
T3 construct: purchased Sigma-Aldrich (São Paulo, Brazil)
T3 sequence (O42275 24-633): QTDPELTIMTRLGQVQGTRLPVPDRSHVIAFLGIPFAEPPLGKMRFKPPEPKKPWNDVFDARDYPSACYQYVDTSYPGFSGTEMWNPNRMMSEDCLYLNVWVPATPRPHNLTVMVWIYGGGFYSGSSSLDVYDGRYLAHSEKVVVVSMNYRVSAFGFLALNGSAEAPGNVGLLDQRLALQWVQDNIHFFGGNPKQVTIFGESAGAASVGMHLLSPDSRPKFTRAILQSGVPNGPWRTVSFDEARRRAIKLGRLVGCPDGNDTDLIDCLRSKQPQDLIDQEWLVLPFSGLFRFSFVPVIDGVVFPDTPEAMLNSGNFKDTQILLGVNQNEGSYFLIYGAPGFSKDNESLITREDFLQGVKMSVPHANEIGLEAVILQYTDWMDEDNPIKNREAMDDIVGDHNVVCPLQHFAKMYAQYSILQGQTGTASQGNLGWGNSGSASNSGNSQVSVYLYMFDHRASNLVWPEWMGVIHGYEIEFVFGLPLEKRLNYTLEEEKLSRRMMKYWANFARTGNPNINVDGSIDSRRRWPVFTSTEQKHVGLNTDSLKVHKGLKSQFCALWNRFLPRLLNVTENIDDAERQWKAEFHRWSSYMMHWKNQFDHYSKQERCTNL
Particulars: EeAChE 33 nM, ACh 5 mM, final concentration of the inhibitor 10 mM, 25 °C, triplicate; read-out: AChE inhibition (NMR test).

T1 sequence (O42275 24-633): as above
T2 sequence (P81908 whole entry): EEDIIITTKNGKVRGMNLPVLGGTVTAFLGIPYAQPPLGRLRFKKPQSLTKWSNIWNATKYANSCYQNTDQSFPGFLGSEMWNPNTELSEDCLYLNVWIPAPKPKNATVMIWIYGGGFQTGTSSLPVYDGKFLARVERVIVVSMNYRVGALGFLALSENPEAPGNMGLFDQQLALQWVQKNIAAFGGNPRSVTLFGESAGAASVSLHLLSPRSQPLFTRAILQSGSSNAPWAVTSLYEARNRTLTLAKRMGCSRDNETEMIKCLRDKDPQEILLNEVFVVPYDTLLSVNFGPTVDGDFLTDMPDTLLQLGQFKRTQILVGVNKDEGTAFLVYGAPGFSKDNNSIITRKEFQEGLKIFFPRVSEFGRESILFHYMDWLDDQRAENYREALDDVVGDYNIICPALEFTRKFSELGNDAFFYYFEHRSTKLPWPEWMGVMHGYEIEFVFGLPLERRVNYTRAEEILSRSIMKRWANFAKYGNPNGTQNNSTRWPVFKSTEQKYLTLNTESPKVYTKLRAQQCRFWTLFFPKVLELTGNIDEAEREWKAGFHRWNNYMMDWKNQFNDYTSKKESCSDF

Turning to `CC1(C)CC(=O)c2cc3cc4c(cc3nc2C1)OCO4` [Compound 3, 7,8-Dihydro-7,7-dimethyl-1,3-dioxolo[4,5-b]acridin-9(6h)-one], in experiment [1], the IC50 stood at 51.5 ± 2.47 µM.

For the molecule `O=C(O)c1cc2cc3c(cc2[nH]c1=O)OCO3` [Compound 5, Acid 5,6-Diidro-6-oxo-1,3-dioxolo[4,6g] quiniline-7-carboxilic], the IC50 in experiment [1] is 14.2 ± 1.15 µM. `O=c1[nH]c(=O)c2cc3cc4c(cc3nc2[nH]1)OCO4` [Compound 6, 1,3-Dioxolo [4,5-g] pirimido [4,5-b] quinoline-7,9 (6H,8H)-dione] came in with a 50% inhibitory concentration (IC50) in experiment [1] of 32.1 ± 3.53 µM. On to `CC1(C)CC(=NNC(=N)N)c2cc3cc4c(cc3nc2C1)OCO4` [Compound 8, Guanylhydrazone of 7,7-Dimethyl-7,8-dihydro-[1,3]dioxolo[4,5-b]acridin-9(6h)-one], for which the results for the IC50 in experiment [1] and in experiment [2] were 8.5 ± 0.39 µM and 15.2 ± 0.75 µM, respectively. In addition, the inhibition at 10000 µM at EeAChE was found to be 73.9 ± 6.26%. In experiment [1], `CCOC(=O)c1cc2cc3c(cc2[nH]c1=O)OCO3` [Compound 7, Ethyl 5,6-Dehidro-6-oxo-[1,3] dioxolano [4,5-g] quinoline-7-carboxilate] gave a concentration for half-maximal inhibition (IC50) of 62.8 ± 2.02 µM. For the molecule `COC(=O)c1cc2cc3c(cc2nc1C)OCO3` [Compound 4, Methyl 6-Methyl-[1,3]dioxolo[4,5-g]quinone-7-carboxilate], in experiment [1], the IC50 was more than 100 µM and the “IC50 EeAChE” value is “not able to inhibit”. Moreover, in experiment [2], the “IC50 EqBChE” value is recorded as “not able to inhibit”.
